Read-outs that look alike come from different tables or passages of the source.
Tests used:
[1] = tested on: WI-38 cells; assay: CdCl2 (cadmium) resistance assay; format: cell-based, human; settings: for Assay 4: H2O2- & Cd-resistant / Assay 2: Cadmium-resistant: YES/NO; for Assay 2: Cadmium-resistant: * indicates partial; for fold induction at 10 µM: Homo sapiens, 12 h
In short: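 Resistance to CdCl2 or MMS stress (12 h exposure) was scored in WI-38 fibroblasts pretreated with compound at 0.25–20 μM final, five doses, technical triplicates. MMS plates had compound added 24 h before MMS, after a shift to serum-free DMEM+2% BSA. Significance came from a global variance t-test over two independent runs.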

[2] = tested on: C. elegans; format: in vivo, Caenorhabditis elegans
Description: The worms were treated with the small molecules in liquid, with H2O2 (500 μM final concentration) added on day 4 of adulthood, and scored for viability everyday
FUdR was used to block progeny production. The molecules were analyzed in 96-well plates, with 4 wells for each small molecule. Multiple control wells with DMSO (0.2% final concentration) were included. […] Day 1 adults were transferred onto mini-plates, seeded with OP50 bacteria (UV-irradiated, kanamycin-treated) and supplemented with small molecules (˜60 μM final concentration, 0.2% DMSO). Worms were scored every other day. Cumulative survival was analyzed using the STATA software (log-rank test). […] The worms were treated with the small molecules in liquid, with H2O2 (500 μM final concentration) added on day 4 of adulthood, and scored for viability every day.

[3] = tested on: FOXO3; assay: FOXO3 siRNA knockdown: dependency for H2O2-resistance; format: cell-based, human; settings: for FOXO3-dependency for H2O2-resistance (experiment 3): with & without H2O2, FOXO3 knockdown in WI-38 cells
Description: For qPCR analysis, WI-38 cells were treated with small molecules (at 10 μM) (biological quadruplicates) for 24 hrs and processed for RNA isolation and reverse transcription (RT) with the Cells-to-Ct Kit (Life Technologies), following manufacturer's instructions. RT products were diluted with H2O and used for qPCR analysis on an ABI 7300 system (Life Technologies) (technical triplicates). Relative expression levels of target genes were normalized to the genes B2M, PPIA and GAPDH. To knock down the expression of FOXO3 or NRF2, WI-38 cells were transfected, using the RNAiMAX reagents (Life Technologies), with siRNA oligos (at 10 nM final concentration, 10 ml culture medium) for FOXO3 (Life Technologies) or NRF2 (Integrated DNA Technologies) on 10-cm petri dishes for 36 hrs, and then detached and aliquoted onto 96-well (for qPCR analysis) or 384-well plates (for H2O2-stress treatment). ˜24 hrs later, small molecules were introduced and incubated with cells for 24 hrs. Cells were then either processed with the Cells-to-Ct Kit to prepare RT products for qPCR analysis or subjected to H2O2 (700 μM) for 3 hrs and assayed for viability. The knockdown efficiency of FOXO3 or NRF2 was checked at 36 hrs post-transfection and at the end as well. […]
Applicants used siRNA to knock down FOXO3 expression by ˜70% in an attempt to identify whether the activation of these genes depends on activity of FOXO3 and/or NRF2. […] We used siRNA to knock down FOXO3 expression by ˜60% to 70% (FIG. 3; see data in Table 6). […] (Given the caveat that FOXO3 was not fully knocked down, partial dependency was scored when the H2O2-resistance capacity was reduced by at least 25% but less than 50% upon siRNA knockdown). At least for Gr-7A and Gr-7C, which are structurally related, the observed FOXO3-dependency for H2O2-resistance is consistent with their strong effects to induce FOXO3 target genes (Tables 1a-1f, Table 6, & Table 15), including SOD2 and GADD45A.

[4] = tested on: WI-38 cells
Description: WI-38 cells were seeded on 384-well plates for 24 hrs and then incubated with small molecules for 24 hrs. […] Images were collected on an INCell Analyzer 2000 (GE) and analyzed with the Developer software.

[5] = WI-38 cells, 10 μM, both stressors
[6] = score in summary of 38 core set hits
[7] = Exp. 1, WI-38 cells, 10 uM, normalized ATP measurement, read-out: Exp. 1, under Cd2Cl2 stress treatment, at 10 uM (fold change)
[8] = Exp. 2, WI-38 cells, 10 uM, normalized ATP measurement, read-out: Exp. 2, under Cd2Cl2 stress treatment, at 10 uM (fold change)
[9] = no H2O2 stress, 10 uM, negative control 0.41% ± 0.23%
[10] = Assay 8(k), without H2O2, at 10 uM
[11] = WI-38, no H2O2, control 0.4±0.2%
[12] = 10 uM, YES = resistance reduced by at least 50%, partial = 25% to 50%

| Compound | CdCl2-resistant [1] | H2O2- & CdCl2-resistant [1] | CdCl2-resistant ([1]; WI-38 cells, 10 μM) | H2O2- & CdCl2-resistant [1, 5] | Assay 4: H2O2- & Cd-resistant [1] | Assay 2: Cadmium-resistant [1] | A = Cadmium resistant [1, 6] | A = Cadmium resistant ([1]; summary score) | C = H2O2- & Cd-resistant ([1]; summary score) | I = FOXO3-dependency for H2O2-resistance ([3]; score) | I = FOXO3-dependency for H2O2-resistance ([3]; summary score) | fold induction at 10 µM [1, 7] | fold induction at 10 µM [1, 8] | L = H2O2-resistance in worms ([2]; in vivo) | N = H2O2-resistance in woms ([2]; in vivo) | Percentage of propidium iodide-positive dead cells (no H2O2 stress treatment), at 10 uM [4, 9] | PI cell-death imaging without H2O2 (indicating potential toxicity) [4, 10] | PI-positive dead cells under normal conditions [4, 11] | further results |
| --- | --- | --- | --- | --- | --- | --- | --- | --- | --- | --- | --- | --- | --- | --- | --- | --- | --- | --- | --- |
| COc1cc2c(no[n+]2[O-])n2nnnc12 [O11] | YES | YES | YES | YES | YES | YES | 1 | 1 | 1 | 0 | 0 | – | – | – | – | – | – | – | Exp. 1, under CdCl2 stress treatment, at 10 uM (fold change) ([1]; Exp. 1, WI-38 cells, 10 uM, normalized ATP measurement): 3.78 fold change; Exp. 2, under CdCl2 stress treatment, at 10 uM (fold change) ([1]; Exp. 2, WI-38 cells, 10 uM, normalized ATP measurement): 2.80 fold change; H2O2-resistance assay, 1st experiment ([2]; 60 μM, in liquid, wild type, with FuDR): YES;; N = H2O2-resistance in woms ([2]; score): 0; L = H2O2-resistance in worms ([2]; summary score): 0; PI cell-death imaging without H2O2 (indicating potential toxicity) [4]: YES; PI-positive dead cells under normal conditions ([4]; human): 1.9%±0.7%; Percentage of propidium iodide-positive dead cells (no H2O2 stress treatment), at 10 uM ([4]; human): 1.86% ± 0.71%, |
| Nc1ccccc1S(=O)(=O)Nc1cccc2cccnc12 [Gr-3C] | – | – | – | – | – | – | 0 | 0 | 0 | 0 | 0 | 0.06 | 0.4 | 0 | 0 | 0.57% ± 0.24%, | – | – | – |
| CCc1ccccc1NC(=O)c1ccc([N+](=O)[O-])o1 [Gr-1C] | YES | YES | YES | YES | YES | YES | 1 | 1 | 1 | 0 | 0 | 7.9 | 9.86 | 0 | 0 | 3.51% ± 1.28%, | YES | 3.5±1.3% | Percentage of propidium iodide-positive (dead) cells under normal conditions (qualitative) ([4]; WI-38, no H2O2): increased the percentage |
| Oc1ncnc2sc3c(c12)CCC3 [O14] | YES | YES | YES | YES | YES | YES | 1 | 1 | 1 | 0 | 0 | 2.2 | 2.69 | 0 | 0 | 0.41% ± 0.22%, | – | – | – |
| CC(C)(C)c1ccc(OCC(=O)Nc2ccc3c4c(cccc24)C(=O)NC3=O)cc1 [O22] | YES | YES | YES | YES | YES | YES | 1 | 1 | 1 | 0 | 0 | 5.61 | 14.7 | 0 | 0 | 0.37% ± 0.14%, | – | – | – |
| O=C1NCCCc2cc(Cl)sc21 [O1] | YES | YES | YES | YES | YES | YES | 1 | 1 | 1 | 0 | 0 | 1.84 | 1.86 | 0 | 0 | 0.30% ± 0.13%, | – | – | – |
| Cc1ccc(NC(=O)c2ccc([N+](=O)[O-])o2)cc1C [Gr-1F] | YES | YES | YES | YES | YES | YES | 1 | 1 | 1 | 0 | 0 | 6.65 | 4.8 | 0 | 0 | 3.27% ± 0.82%, | YES | 3.3±0.8% | FOXO3-dependency for H2O2-resistance, at 10 uM (experiment 3) - with & without H2O2 ([3]; 10 uM): YES; FOXO3-dependency for H2O2-resistance (experiment 3) [3, 12]: YES; Percentage of propidium iodide-positive (dead) cells under normal conditions (qualitative) ([4]; WI-38, no H2O2): increased the percentage |
| COc1ccc(C(=O)/C=C/c2cccc(Cl)c2)c(OC)c1 [Gr-4C] | – | – | – | – | YES | YES | 0 | 1 | 1 | 0 | 0 | 1.07 | 1.19 | – | – | 0.47% ± 0.20%, | – | – | N = H2O2-resistance in woms ([2]; score): 0; L = H2O2-resistance in worms ([2]; summary score): 0 |
| COC(=O)CCc1sc2c(c1[N+](=O)[O-])NC(=O)CCC2 [O20] | YES | YES | YES | YES | YES | YES | 1 | 1 | 1 | 1 | 1 | 6.37 | 4 | 0 | 0 | 0.73% ± 0.25%, | YES | 0.7%±0.3% | FOXO3-dependency for H2O2-resistance, at 10 uM - with H2O2, 2nd experiment ([3]; 10 uM, experiment 2 (2nd), with H2O2): 2nd, YES.; FOXO3-dependency for H2O2-resistance, at 10 uM (experiment 3) - with & without H2O2 ([3]; 10 uM): YES; FOXO3-dependency for H2O2-resistance (experiment 3) [3, 12]: YES; FOXO3-dependency for H2O2-resistance, 2nd experiment ([3]; 10 uM, with H2O2, FOXO3 knockdown in WI-38 cells, YES = resistance reduced by at least 50%, partial = 25% to 50%): YES.; Assay 16: FOXO3-dependency for H2O2-resistance ([3]; 10 uM, YES/NO): YES; Requirement of FOXO3 to promote H2O2-resistance ([3]; FOXO3 siRNA, at least 2 of 3 independent experiments): required FOXO3 |
